Measured values from ChEMBL document CHEMBL4339211 (Bioorg Med Chem, 2019).

Key:
Format in all cases: functional, cell-based
[1] = molecular target: T1, D(1A) dopamine receptor (Homo sapiens, UniProt P21728); assay: Antagonist activity at D1 receptor (unknown origin) expressed in CHOK1 cells assessed as inhibition of SKF38393-induced cAMP accumulation measured after 30 mins
[2] = molecular target: T1, D(1A) dopamine receptor; assay: Agonist activity at D1 receptor (unknown origin) expressed in CHOK1 cells assessed as increase in cAMP accumulation at 10 uM measured after 30 mins
[3] = molecular target: T2, D(2) dopamine receptor (Homo sapiens, UniProt P14416); assay: Agonist activity at D2 receptor (unknown origin) expressed in CHOK1 cells assessed as increase in calcium flux at 10 uM incubated for 60 mins at 37 degC followed by 15 mins incubation under room temperature measured after 20 secs for 100 secs by calcium-4 dye based FLIPR assay relative to control
T2 sequence (P14416 whole entry): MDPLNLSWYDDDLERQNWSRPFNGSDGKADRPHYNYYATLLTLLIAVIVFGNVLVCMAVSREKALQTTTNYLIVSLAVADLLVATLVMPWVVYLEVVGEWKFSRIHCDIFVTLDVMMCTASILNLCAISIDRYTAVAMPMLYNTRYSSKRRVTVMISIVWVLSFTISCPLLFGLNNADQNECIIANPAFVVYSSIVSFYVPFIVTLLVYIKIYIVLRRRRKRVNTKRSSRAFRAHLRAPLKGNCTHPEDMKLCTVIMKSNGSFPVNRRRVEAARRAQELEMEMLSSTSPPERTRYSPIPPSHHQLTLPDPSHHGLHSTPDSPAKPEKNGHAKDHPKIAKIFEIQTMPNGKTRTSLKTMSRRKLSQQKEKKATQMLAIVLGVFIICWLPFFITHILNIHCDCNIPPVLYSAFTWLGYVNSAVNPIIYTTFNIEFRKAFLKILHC

[4] = molecular target: T2, D(2) dopamine receptor; assay: Antagonist activity at D2 receptor (unknown origin) expressed in CHOK1 cells assessed as inhibition of dopamine-induced calcium flux preincubated for 60 mins at 37 degC followed by 15 mins incubation under room temperature and subsequent dopamine addition measured after 20 secs for 100 secs by calcium-4 dye based FLIPR assay

T1 sequence (P21728 whole entry): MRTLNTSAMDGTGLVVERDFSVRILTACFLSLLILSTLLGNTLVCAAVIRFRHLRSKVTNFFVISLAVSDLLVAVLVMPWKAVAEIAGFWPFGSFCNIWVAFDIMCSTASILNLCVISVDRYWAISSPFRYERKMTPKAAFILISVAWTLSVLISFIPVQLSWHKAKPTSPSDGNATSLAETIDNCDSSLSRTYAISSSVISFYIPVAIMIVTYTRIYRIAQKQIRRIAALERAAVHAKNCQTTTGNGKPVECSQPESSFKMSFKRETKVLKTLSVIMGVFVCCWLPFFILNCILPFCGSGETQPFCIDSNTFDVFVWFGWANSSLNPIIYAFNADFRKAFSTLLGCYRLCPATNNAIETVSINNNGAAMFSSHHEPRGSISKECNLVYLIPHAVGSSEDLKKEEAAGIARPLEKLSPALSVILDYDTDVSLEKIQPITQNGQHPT

Oc1ccc2c(c1)CN1CCc3cc4c(cc3C1C2)OCO4 (racemic)
IC50 [1]: 1.42 µM | Activity [2]: -4.41% | Activity [3]: 2.17% | IC50 [4]: 0.5 µM

COc1cc2c(cc1OC)C1Cc3c(cc(OC)c(O)c3OC)CN1CC2 (racemic)
IC50 [1]: > 10 µM | Activity [2]: -4.17% | Activity [3]: 3.74% | IC50 [4]: 6.36 µM

COc1ccc2c(c1OC(C)=O)CN1CCc3cc4c(cc3C1C2)OCO4 (racemic)
IC50 [1]: 1.08 µM | Activity [2]: 0% | Activity [3]: 4.5% | IC50 [4]: 0.42 µM

c1ccc(COc2cccc3c2CC2c4cc5c(cc4CCN2C3)OCO5)cc1 (racemic)
IC50 [1]: > 10 µM | Activity [2]: 4.48% | Activity [3]: 2.5% | IC50 [4]: > 10 µM

COc1cc2c(cc1O)C1Cc3cc(OC)c(OC)cc3CN1CC2 (racemic)
IC50 [1]: > 10 µM | Activity [2]: 24.4% | Activity [3]: 3.67% | IC50 [4]: 3.58 µM

Oc1cccc2c1CC1c3cc4c(cc3CCN1C2)OCO4 (racemic)
IC50 [1]: 1.03 µM | Activity [2]: 1.8% | Activity [3]: 2.22% | IC50 [4]: 0.19 µM

COc1ccc2c(c1O[C@@H]1O[C@H](CO)[C@@H](O)[C@H](O)[C@H]1O)CN1CCc3cc4c(cc3[C@H]1C2)OCO4
IC50 [1]: > 10 µM | Activity [2]: -7.46% | Activity [3]: 3.17% | IC50 [4]: > 10 µM

COc1ccc2c(c1O)CN1CCc3cc(O)c(O)cc3C1C2 (racemic)
IC50 [1]: 0.39 µM | Activity [2]: -5.41% | Activity [3]: 4.27% | IC50 [4]: 0.076 µM

COc1cc(/C=C/C(=O)Oc2c(OC)ccc3c2CN2CCc4cc5c(cc4C2C3)OCO5)ccc1OC(C)=O (racemic)
IC50 [1]: > 10 µM | Activity [2]: -3.69% | Activity [3]: 2.97% | IC50 [4]: 7.96 µM

COc1cc2c(cc1O)CC1c3cc4c(cc3CCN1C2)OCO4 (racemic)
IC50 [1]: > 10 µM | Activity [2]: -3.7% | Activity [3]: 3.81% | IC50 [4]: 4.94 µM

COc1cc2c(cc1OC)C1Cc3c(cc(O)c(OC)c3OC)CN1CC2 (racemic)
IC50 [1]: > 10 µM | Activity [2]: 5.95% | Activity [3]: 6.88% | IC50 [4]: 8.81 µM

COc1cc2c(cc1OC)C1Cc3ccc(OC)c(O)c3CN1CC2 (racemic)
IC50 [1]: 0.41 µM | Activity [2]: -4.32% | Activity [3]: 5.52% | IC50 [4]: 3.11 µM

COc1cc2c(cc1O)CC1c3cc(OC)c(OC)cc3CCN1C2 (racemic)
IC50 [1]: 0.67 µM | Activity [2]: -5.16% | Activity [3]: 3.35% | IC50 [4]: 2.59 µM

COc1cc2c(c(OC)c1O)CC1c3cc4c(cc3CCN1C2)OCO4 (racemic)
IC50 [1]: 7.42 µM | Activity [2]: -5.75% | Activity [3]: 1.29% | IC50 [4]: 1.08 µM

COc1ccc2c(c1OC)CN1CCc3cc(O)c(O)cc3C1C2 (racemic)
IC50 [1]: 0.63 µM | Activity [2]: -3.17% | Activity [3]: 2.53% | IC50 [4]: 0.04 µM

COc1ccc2c(c1O[C@@H]1O[C@H](CO)[C@@H](O)[C@H](O)[C@H]1O)CN1CCc3cc4c(cc3[C@@H]1C2)OCO4
IC50 [1]: > 10 µM | Activity [2]: -1.05% | Activity [3]: 2.96% | IC50 [4]: > 10 µM

COc1cc2c(cc1OC)[C@@H]1Cc3ccc(OC)c(OC)c3CN1CC2 [TETRAHYDROPALMATINE]
IC50 [1]: 1.63 µM | Activity [2]: -7.43% | Activity [3]: 3.51% | IC50 [4]: 0.45 µM

COc1cc2c(cc1OC)C1Cc3ccc(O)cc3CN1CC2 (racemic)
IC50 [1]: 6.51 µM | Activity [2]: -3.91% | Activity [3]: 2.39% | IC50 [4]: 1.53 µM
